From PubChem BioAssay (NCI)
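1) Cells in 96-well plates. 2) Compound, 48 h, 5 concentrations. 3) Linear interpolation between surrounding doses. 4) Unreached endpoint = highest concentration. GI50: concentration for 50% inhibition of growth. The concentration for full growth arrest is given as TGI.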

How the values were obtained:
Assay in all cases: NCI tumour cell line growth inhibition, 48 h
[1] = test system: 786-0 renal
[2] = test system: A498 renal
[3] = test system: A549 NSCLC
[4] = test system: ACHN renal
[5] = test system: BT-549 breast
[6] = test system: CAKI-1 renal
[7] = test system: CCRF-CEM leukemia
[8] = test system: COLO 205 colon
[9] = test system: DU-145 prostate
[10] = test system: HCC-2998 colon
[11] = test system: HCT-116 colon
[12] = test system: HCT-15 colon
[13] = test system: HL-60(TB) leukemia
[14] = test system: HOP-62 NSCLC
[15] = test system: HOP-92 NSCLC
[16] = test system: HS 578T breast
[17] = test system: HT29 colon
[18] = test system: IGROV1 ovarian
[19] = test system: K-562 leukemia
[20] = test system: KM12 colon
[21] = test system: LOX IMVI melanoma
[22] = test system: M14 melanoma
[23] = test system: MALME-3M melanoma
[24] = test system: MCF7 breast
[25] = test system: MDA-MB-231 breast
[26] = test system: MDA-MB-435
[27] = test system: MOLT-4 leukemia
[28] = test system: NCI-H226 lung
[29] = test system: NCI-H23 lung
[30] = test system: NCI-H460 lung
[31] = test system: NCI-H522 lung
[32] = test system: NCI/ADR-RES ovarian
[33] = test system: OVCAR-3 ovarian
[34] = test system: OVCAR-4 ovarian
[35] = test system: OVCAR-5 ovarian
[36] = test system: OVCAR-8 ovarian
[37] = test system: PC-3 prostate
[38] = test system: RPMI-8226 leukemia
[39] = test system: RXF 393 renal
[40] = test system: SF-268 CNS
[41] = test system: SF-295 CNS
[42] = test system: SF-539 CNS
[43] = test system: SK-MEL-2 melanoma
[44] = test system: SK-MEL-28 melanoma
[45] = test system: SK-MEL-5 melanoma
[46] = test system: SK-OV-3 ovarian
[47] = test system: SN12C renal
[48] = test system: SNB-19 CNS
[49] = test system: SNB-75 CNS
[50] = test system: SR leukemia
[51] = test system: SW-620 colon
[52] = test system: T-47D breast
[53] = test system: TK-10 renal
[54] = test system: U251 CNS
[55] = test system: UACC-257 melanoma
[56] = test system: UACC-62 melanoma
[57] = test system: UO-31 renal

O=C1/C(=C\c2ccc(Br)cc2)CN(C(=O)c2ccccc2F)C/C1=C\c1ccc(Br)cc1
GI50 [1]: 1690 nM
TGI [1]: 3130 nM
GI50 [2]: 2870 nM
TGI [2]: 10400 nM
GI50 [3]: 2210 nM
TGI [3]: 6160 nM
GI50 [4]: 1950 nM
TGI [4]: 3930 nM
GI50 [5]: 1820 nM
TGI [5]: 3560 nM
GI50 [6]: 3050 nM
TGI [6]: 20000 nM
GI50 [7]: 854 nM
TGI [7]: > 26500 nM
GI50 [8]: 1910 nM
TGI [8]: 3820 nM
GI50 [9]: 3790 nM
TGI [9]: 16800 nM
GI50 [10]: 1650 nM
TGI [10]: 3160 nM
GI50 [11]: 202 nM
TGI [11]: 417 nM
GI50 [12]: 1910 nM
TGI [12]: 6650 nM
GI50 [13]: 1740 nM
TGI [13]: 5290 nM
GI50 [14]: 1830 nM
TGI [14]: 3820 nM
GI50 [15]: 2210 nM
TGI [15]: 6760 nM
GI50 [16]: 2150 nM
TGI [16]: 6760 nM
GI50 [17]: 610 nM
TGI [17]: 2170 nM
GI50 [18]: 2290 nM
TGI [18]: 4890 nM
GI50 [19]: 1120 nM
TGI [19]: > 25100 nM
GI50 [20]: 646 nM
TGI [20]: 2060 nM
GI50 [21]: 334 nM
TGI [21]: 1010 nM
GI50 [22]: 1790 nM
TGI [22]: 3780 nM
GI50 [23]: 2610 nM
TGI [23]: 7910 nM
GI50 [24]: 308 nM
TGI [24]: 1380 nM
GI50 [25]: 2730 nM
TGI [25]: 7890 nM
GI50 [26]: 1100 nM
TGI [26]: 3330 nM
GI50 [27]: 2830 nM
TGI [27]: > 29500 nM
GI50 [28]: 5070 nM
TGI [28]: 13600 nM
GI50 [29]: 2490 nM
TGI [29]: 6390 nM
GI50 [30]: 3100 nM
TGI [30]: 11600 nM
GI50 [31]: 2150 nM
TGI [31]: 4940 nM
GI50 [32]: 2900 nM
TGI [32]: 17700 nM
GI50 [33]: 1910 nM
TGI [33]: 3520 nM
GI50 [34]: 1960 nM
TGI [34]: 5010 nM
GI50 [35]: 2450 nM
TGI [35]: 7060 nM
GI50 [36]: 2840 nM
TGI [36]: 15700 nM
GI50 [37]: 1730 nM
TGI [37]: 4210 nM
GI50 [38]: 119 nM
TGI [38]: 903 nM
GI50 [39]: 1600 nM
TGI [39]: 3080 nM
GI50 [40]: 2810 nM
TGI [40]: 8830 nM
GI50 [41]: 2180 nM
TGI [41]: 5640 nM
GI50 [42]: 1750 nM
TGI [42]: 3220 nM
GI50 [43]: 4770 nM
TGI [43]: 17500 nM
GI50 [44]: 2290 nM
TGI [44]: 5650 nM
GI50 [45]: 1930 nM
TGI [45]: 4040 nM
GI50 [46]: 2430 nM
TGI [46]: 5710 nM
GI50 [47]: 1980 nM
TGI [47]: 4920 nM
GI50 [48]: 2060 nM
TGI [48]: 6650 nM
GI50 [49]: 2030 nM
TGI [49]: 7440 nM
GI50 [50]: 339 nM
TGI [50]: 3200 nM
GI50 [51]: 913 nM
TGI [51]: 2950 nM
GI50 [52]: 3470 nM
TGI [52]: 24100 nM
GI50 [53]: 2840 nM
TGI [53]: 7460 nM
GI50 [54]: 1330 nM
TGI [54]: 2690 nM
GI50 [55]: 2350 nM
TGI [55]: 6590 nM
GI50 [56]: 1760 nM
TGI [56]: 4030 nM
GI50 [57]: 1530 nM
TGI [57]: 3160 nM
